{"source": "patent US20170166879A1", "about": "“NOVEL (R)-HYDROXYNITRILE LYASE” (PUBLIC UNIVERSITY CORPORATION TOYAMA PREFECTURAL UNIVERSITY, priority 2014, published 2017)", "key": {"R-ChHNL [1]": {"target": "T1, R-ChHNL (Chamberlinius hualienensis, UniProt A0A0H5BR52)", "experiment": "Dynamic (kinetic) analysis, racemic mandelonitrile as substrate (decomposition reaction)", "type": "biochemical"}, "R-ChHNL [2]": {"target": "T1, R-ChHNL", "experiment": "Dynamic (kinetic) analysis, aldehyde substrates, Hanes-Woolf plot", "settings": "aldehydes other than benzaldehyde; for max S.A. (specific activity) / Km / Vmax / kcat: condition similar to the above-described condition; for relative S.A.: relative to benzaldehyde at pH 5.2 and 22° C."}, "R-ChHNL [3]": {"target": "T1, R-ChHNL", "experiment": "Search of inhibitor of R-ChHNL activity (remaining activity)", "type": "biochemical"}, "[4]": {"settings": "10 mM, pH 7.0, 20° C., 60 minutes"}, "[5]": {"settings": "concentration not given (1 mM or 0.1 mM), pH 7.0, 20° C., 60 minutes"}}}
{"smiles": "N#CC(O)c1ccccc1", "note": "(racemic) [racemic mandelonitrile, mandelonitrile]", "values": [{"measurement": "Km", "setting": "R-ChHNL [1]", "value": 5.5, "unit": "mM"}, {"measurement": "Vmax", "setting": "R-ChHNL [1]", "value": 2819, "unit": "µmol/min/mg"}, {"measurement": "kcat", "setting": "R-ChHNL [1]", "value": 1168, "unit": "s⁻¹"}, {"measurement": "max S.A. (specific activity)", "setting": "R-ChHNL [1]", "value": 1896, "unit": "U/mg"}]}
{"smiles": "O=Cc1cccc2ccccc12", "note": "[1-naphthalenecarboxaldehyde]", "values": [{"measurement": "max S.A. (specific activity)", "setting": "R-ChHNL [2]", "value": 326, "unit": "U/mg"}, {"measurement": "relative S.A.", "setting": "R-ChHNL [2]", "value": 4.4}]}
{"smiles": "Cc1ccc(C=O)c(C)c1", "note": "[2,4-dimethylbenzaldehyde]", "values": [{"measurement": "Km", "setting": "R-ChHNL [2]", "value": 0.94, "unit": "mM"}, {"measurement": "Vmax", "setting": "R-ChHNL [2]", "value": 632.2, "unit": "µmol/min/mg"}, {"measurement": "kcat", "setting": "R-ChHNL [2]", "value": 261.8, "unit": "s⁻¹"}, {"measurement": "max S.A. (specific activity)", "setting": "R-ChHNL [2]", "value": 654, "unit": "U/mg"}, {"measurement": "relative S.A.", "setting": "R-ChHNL [2]", "value": 8.8}]}
{"smiles": "OCCS", "note": "[2-mercaptoethanol]", "values": [{"measurement": "Remaining activity", "setting": "R-ChHNL [3]; [4]", "value": 95, "unit": "%"}]}
{"smiles": "Cc1ccccc1C=O", "note": "[2-methylbenzaldehyde]", "values": [{"measurement": "Km", "setting": "R-ChHNL [2]", "value": 3.1, "unit": "mM"}, {"measurement": "Vmax", "setting": "R-ChHNL [2]", "value": 2564.9, "unit": "µmol/min/mg"}, {"measurement": "kcat", "setting": "R-ChHNL [2]", "value": 1062.3, "unit": "s⁻¹"}, {"measurement": "max S.A. (specific activity)", "setting": "R-ChHNL [2]", "value": 2395, "unit": "U/mg"}, {"measurement": "relative S.A.", "setting": "R-ChHNL [2]", "value": 32.2}]}
{"smiles": "O=Cc1cccs1", "note": "[2-thiophenecarboxaldehyde]", "values": [{"measurement": "Km", "setting": "R-ChHNL [2]", "value": 18.7, "unit": "mM"}, {"measurement": "Vmax", "setting": "R-ChHNL [2]", "value": 3522, "unit": "µmol/min/mg"}, {"measurement": "kcat", "setting": "R-ChHNL [2]", "value": 1459, "unit": "s⁻¹"}, {"measurement": "max S.A. (specific activity)", "setting": "R-ChHNL [2]", "value": 2403, "unit": "U/mg"}, {"measurement": "relative S.A.", "setting": "R-ChHNL [2]", "value": 32.3}]}
{"smiles": "COc1cccc(C=O)c1", "note": "[3-methoxybenzaldehyde]", "values": [{"measurement": "Km", "setting": "R-ChHNL [2]", "value": 5.7, "unit": "mM"}, {"measurement": "Vmax", "setting": "R-ChHNL [2]", "value": 3228.2, "unit": "µmol/min/mg"}, {"measurement": "kcat", "setting": "R-ChHNL [2]", "value": 1337, "unit": "s⁻¹"}, {"measurement": "max S.A. (specific activity)", "setting": "R-ChHNL [2]", "value": 3326, "unit": "U/mg"}, {"measurement": "relative S.A.", "setting": "R-ChHNL [2]", "value": 44.7}]}
{"smiles": "Cc1cccc(C=O)c1", "note": "[3-methylbenzaldehyde]", "values": [{"measurement": "max S.A. (specific activity)", "setting": "R-ChHNL [2]", "value": 12657, "unit": "U/mg"}, {"measurement": "relative S.A.", "setting": "R-ChHNL [2]", "value": 170.3}]}
{"smiles": "O=Cc1ccc(Br)cc1", "note": "[4-bromobenzaldehyde]", "values": [{"measurement": "Km", "setting": "R-ChHNL [2]", "value": 9.5, "unit": "mM"}, {"measurement": "Vmax", "setting": "R-ChHNL [2]", "value": 19940, "unit": "µmol/min/mg"}, {"measurement": "kcat", "setting": "R-ChHNL [2]", "value": 8259, "unit": "s⁻¹"}, {"measurement": "max S.A. (specific activity)", "setting": "R-ChHNL [2]", "value": 17375, "unit": "U/mg"}, {"measurement": "relative S.A.", "setting": "R-ChHNL [2]", "value": 233.8}]}
{"smiles": "COc1ccc(C=O)cc1", "note": "[4-methoxybenzaldehyde]", "values": [{"measurement": "Km", "setting": "R-ChHNL [2]", "value": 6.7, "unit": "mM"}, {"measurement": "Vmax", "setting": "R-ChHNL [2]", "value": 7482, "unit": "µmol/min/mg"}, {"measurement": "kcat", "setting": "R-ChHNL [2]", "value": 3099, "unit": "s⁻¹"}, {"measurement": "max S.A. (specific activity)", "setting": "R-ChHNL [2]", "value": 6849, "unit": "U/mg"}, {"measurement": "relative S.A.", "setting": "R-ChHNL [2]", "value": 92.1}]}
{"smiles": "Cc1ccc(C=O)cc1", "note": "[4-methylbenzaldehyde]", "values": [{"measurement": "max S.A. (specific activity)", "setting": "R-ChHNL [2]", "value": 11072, "unit": "U/mg"}, {"measurement": "relative S.A.", "setting": "R-ChHNL [2]", "value": 149.0}]}
{"smiles": "O=[N+]([O-])[O-].[Ag+]", "note": "[AgNO3]", "values": [{"measurement": "Remaining activity", "setting": "R-ChHNL [3]; [5]", "value": 68, "unit": "%"}]}
{"smiles": "[Cl][Cd][Cl]", "note": "[CdCl2]", "values": [{"measurement": "Remaining activity", "setting": "R-ChHNL [3]; [5]", "value": 99, "unit": "%"}]}
{"smiles": "[Cl-].[Cl-].[Co+2]", "note": "[CoCl2]", "values": [{"measurement": "Remaining activity", "setting": "R-ChHNL [3]; pH 7", "value": 95, "unit": "%"}]}
{"smiles": "[Cl][Cr]([Cl])[Cl]", "note": "[CrCl3]", "values": [{"measurement": "Remaining activity", "setting": "R-ChHNL [3]; [5]", "value": 88, "unit": "%"}]}
{"smiles": "O=S(=O)([O-])[O-].[Cu+2]", "note": "[CuSO4]", "values": [{"measurement": "Remaining activity", "setting": "R-ChHNL [3]; [5]", "value": 100, "unit": "%"}]}
{"smiles": "O[C@@H](CS)[C@@H](O)CS", "note": "[DTT]", "values": [{"measurement": "Remaining activity", "setting": "R-ChHNL [3]; [5]", "value": 100, "unit": "%"}]}
{"smiles": "O=C(O)CN(CCN(CC(=O)O)CC(=O)O)CC(=O)O", "note": "[EDTA]", "values": [{"measurement": "Remaining activity", "setting": "R-ChHNL [3]; [4]", "value": 100, "unit": "%"}]}
{"smiles": "[Cl][Fe]([Cl])[Cl]", "note": "[FeCl3]", "values": [{"measurement": "Remaining activity", "setting": "R-ChHNL [3]; [5]", "value": 100, "unit": "%"}]}
{"smiles": "[Cl][Hg][Cl]", "note": "[HgCl2]", "values": [{"measurement": "Remaining activity", "setting": "R-ChHNL [3]; [5]", "value": 64, "unit": "%"}]}
{"smiles": "O=S(=O)([O-])[O-].[Mn+2]", "note": "[MnSO4]", "values": [{"measurement": "Remaining activity", "setting": "R-ChHNL [3]; [5]", "value": 106, "unit": "%"}]}
{"smiles": "CCN1C(=O)C=CC1=O", "note": "[N-ethylmaleimide]", "values": [{"measurement": "Remaining activity", "setting": "R-ChHNL [3]; [5]", "value": 100, "unit": "%"}]}
